In patent US11608313B2, “Adamantylmethylamine derivative and use thereof as pharmaceutical” (TOHOKU UNIVERSITY, priority 2017, dated 2023):

Tested on: OBX mice
Assay: Tail-suspension test and forced swim test in OBX mice (depression model)
Format: in vivo
Conditions: single oral dose 1 mg/kg, analyzed after 1 hour
Procedure: OBX mice were used as a depression model to determine the effect of TP-014 (chronic oral treatment for 2 weeks (1 mg/kg)) to ameliorate a depression-like symptom. OBX mice are reported to show a decline in cognitive function, but have originally been established as a depression model. Depression analysis was done by tail-suspension test and forced swim test. In the tail-suspension test, mice are hung upside-down by their tail. If the hung mice are affected by depression, they show a longer immobility time. The immobility time of normal mice is shorter since they move actively when hung. In the forced swim test, mice are forced to swim in a beaker filled with water. Depression mice neither swim nor move (just float). The time (immobility time(s)) for which mice stay still in such a way is measured.
The same model mice were orally treated with a single dose of each of the test compounds (1 mg/kg), and analyzed after 1 hour by tail-suspension test and forced swim test. The results are shown in FIGS. 22-1 (tail-suspension test) and 22-2 (forced swim test).

SMILES: CC(C)(C)C(=O)N[C@@H](c1ccccc1)[C@H]1[C@H]2C[C@@H]3C[C@](Cl)(C2)C[C@@]1(O)C3 [TP-083, N—((R)-((1S,2R,3S,5S,7S)-5-chloro-1-hydroxyadamantan-2-yl)(phenyl)methyl)pivalamide]
- ameliorating effect on a depression-like symptom (tail-suspension test and forced swim test) compared with TP-014: higher ameliorating effect on a depression-like symptom than TP-014
